The record followed here is ChEMBL document CHEMBL1909046, “DrugMatrix in vitro pharmacology data”.

The target of test [1] is T1, Alpha-1A adrenergic receptor (Rattus norvegicus, UniProt P43140).
T1 sequence (P43140 whole entry): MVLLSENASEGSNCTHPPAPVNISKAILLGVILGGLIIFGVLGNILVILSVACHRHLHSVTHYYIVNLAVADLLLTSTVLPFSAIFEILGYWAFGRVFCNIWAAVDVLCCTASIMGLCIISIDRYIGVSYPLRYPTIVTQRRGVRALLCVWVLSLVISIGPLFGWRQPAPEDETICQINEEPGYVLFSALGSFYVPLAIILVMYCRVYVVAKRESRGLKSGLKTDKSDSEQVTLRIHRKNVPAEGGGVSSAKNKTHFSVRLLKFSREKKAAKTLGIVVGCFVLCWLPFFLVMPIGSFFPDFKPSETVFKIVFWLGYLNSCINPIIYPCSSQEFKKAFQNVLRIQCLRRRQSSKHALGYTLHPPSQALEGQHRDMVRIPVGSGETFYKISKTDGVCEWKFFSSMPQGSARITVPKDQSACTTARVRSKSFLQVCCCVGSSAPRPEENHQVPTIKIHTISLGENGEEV
Kind of test: DRUGMATRIX: Alpha-1A adrenergic receptor radioligand binding (ligand: prazosin). The following applies: Not Active = under 50% inhibition at 10 µM; for Ki: read-out: Ki. It counts as cell membranes, Wistar, Submaxillary gland, Membrane.

Test [2] concerns the target C-C chemokine receptor type 5 (Homo sapiens, UniProt P51681). It counts as cell membranes, HEK293, Membrane. Note: in other assays of this panel Not Active means under 50% inhibition at 10 µM.
Test [3] deals with T2, Muscarinic acetylcholine receptor M2 (Homo sapiens, UniProt P08172).
T2 sequence (P08172 whole entry): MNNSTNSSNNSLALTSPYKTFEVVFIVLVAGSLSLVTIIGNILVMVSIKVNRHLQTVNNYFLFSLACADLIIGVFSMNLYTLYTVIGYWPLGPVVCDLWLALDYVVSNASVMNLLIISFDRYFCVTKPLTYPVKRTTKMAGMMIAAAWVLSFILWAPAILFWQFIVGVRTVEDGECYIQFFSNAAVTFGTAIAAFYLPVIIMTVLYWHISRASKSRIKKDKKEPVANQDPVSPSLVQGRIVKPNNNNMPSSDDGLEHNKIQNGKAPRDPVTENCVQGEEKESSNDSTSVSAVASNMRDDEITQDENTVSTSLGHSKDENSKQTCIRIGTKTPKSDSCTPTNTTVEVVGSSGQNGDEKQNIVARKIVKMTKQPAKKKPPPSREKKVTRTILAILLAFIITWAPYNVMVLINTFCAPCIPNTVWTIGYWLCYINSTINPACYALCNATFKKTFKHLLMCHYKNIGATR
It counts as cell membranes, CHO-K1, Membrane.

For a further test, the target named is T3, Neutrophil elastase (Homo sapiens, UniProt P08246).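 Note: inhibition of neutrophil elastase enzyme activity, measured with a p-nitroanilide-linked peptide substrate; in other assays of this panel Not Active means under 50% inhibition at 10 µM.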
T3 sequence (P08246 whole entry): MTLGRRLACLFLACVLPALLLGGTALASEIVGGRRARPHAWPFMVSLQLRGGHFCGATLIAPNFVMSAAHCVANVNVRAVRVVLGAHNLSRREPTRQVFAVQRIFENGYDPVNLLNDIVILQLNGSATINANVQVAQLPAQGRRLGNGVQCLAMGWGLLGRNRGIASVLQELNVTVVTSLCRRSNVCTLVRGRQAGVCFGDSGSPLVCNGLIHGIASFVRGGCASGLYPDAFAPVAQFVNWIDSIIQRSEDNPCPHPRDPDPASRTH
It counts as tissue-based.

The target in test [4] is Tyrosine-protein kinase Fyn (Homo sapiens, UniProt P06241). As to the kind of experiment: biochemical. It counts as cell-based, Insect cells.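 Note: enzymatic inhibition of Fyn kinase activity measured with Poly(Glu:Tyr) as the phosphorylation substrate; in other assays of this panel Not Active means under 50% inhibition at 10 µM.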
Tyrosine-protein kinase Fyn, sequence (P06241 whole entry): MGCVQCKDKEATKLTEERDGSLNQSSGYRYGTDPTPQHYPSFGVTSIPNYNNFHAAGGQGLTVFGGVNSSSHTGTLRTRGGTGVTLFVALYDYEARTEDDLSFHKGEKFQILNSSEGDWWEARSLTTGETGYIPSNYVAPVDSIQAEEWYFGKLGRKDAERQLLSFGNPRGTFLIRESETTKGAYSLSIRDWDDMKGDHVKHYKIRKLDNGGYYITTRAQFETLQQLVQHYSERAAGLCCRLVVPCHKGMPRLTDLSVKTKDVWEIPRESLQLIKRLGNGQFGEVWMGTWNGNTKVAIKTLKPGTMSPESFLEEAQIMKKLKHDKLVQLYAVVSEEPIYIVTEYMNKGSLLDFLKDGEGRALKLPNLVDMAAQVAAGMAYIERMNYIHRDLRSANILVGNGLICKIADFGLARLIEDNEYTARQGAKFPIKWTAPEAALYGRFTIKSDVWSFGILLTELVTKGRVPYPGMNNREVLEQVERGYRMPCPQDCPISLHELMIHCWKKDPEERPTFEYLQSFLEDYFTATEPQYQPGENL
Test [5] has as its target Tyrosine-protein kinase Lck (Homo sapiens, UniProt P06239). Kind of test: DRUGMATRIX: Protein Tyrosine Kinase, LCK enzyme inhibition (substrate: Poly(Glu:Tyr)). It counts as cell-based, Insect cells. The following applies: insect cells; Not Active = under 50% inhibition at 10 µM.

Tyrosine-protein kinase Lck, sequence (P06239 whole entry): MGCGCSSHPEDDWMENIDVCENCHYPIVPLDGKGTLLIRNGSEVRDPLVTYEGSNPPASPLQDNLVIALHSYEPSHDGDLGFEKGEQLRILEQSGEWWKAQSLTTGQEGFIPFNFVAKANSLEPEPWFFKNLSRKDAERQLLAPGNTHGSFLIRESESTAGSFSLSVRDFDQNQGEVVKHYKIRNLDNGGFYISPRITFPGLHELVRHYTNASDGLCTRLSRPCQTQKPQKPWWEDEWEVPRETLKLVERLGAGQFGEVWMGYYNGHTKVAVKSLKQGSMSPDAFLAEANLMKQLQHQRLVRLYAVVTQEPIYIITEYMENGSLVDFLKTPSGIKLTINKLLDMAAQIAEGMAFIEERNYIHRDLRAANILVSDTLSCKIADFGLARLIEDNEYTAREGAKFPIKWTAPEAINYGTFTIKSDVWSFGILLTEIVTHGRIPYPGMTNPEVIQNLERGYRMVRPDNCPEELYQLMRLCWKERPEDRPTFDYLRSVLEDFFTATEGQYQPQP
C-C chemokine receptor type 5, sequence (P51681 whole entry): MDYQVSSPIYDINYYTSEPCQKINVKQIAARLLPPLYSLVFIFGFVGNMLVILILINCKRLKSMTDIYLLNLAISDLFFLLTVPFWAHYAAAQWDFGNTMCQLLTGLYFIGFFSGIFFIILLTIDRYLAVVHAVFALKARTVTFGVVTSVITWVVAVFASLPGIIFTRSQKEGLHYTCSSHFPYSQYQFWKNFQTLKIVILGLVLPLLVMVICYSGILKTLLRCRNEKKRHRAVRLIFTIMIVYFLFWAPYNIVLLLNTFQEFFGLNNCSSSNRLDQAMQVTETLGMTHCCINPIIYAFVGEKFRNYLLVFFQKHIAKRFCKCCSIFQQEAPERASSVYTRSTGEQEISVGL

With `C#C[C@]1(O)CC[C@H]2[C@@H]3[C@H](C)CC4=C(CCC(=O)C4)[C@H]3CC[C@@]21C` [TIBOLONE], the IC50 entry (in test [1]; in test [2] (hek293); in test [3] (cho-k1); at Neutrophil elastase; in test [4] (insect cells); in test [5]) was “Not Active” each time.
On to `C[C@]12CCC(=O)C[C@@H]1CC[C@@H]1[C@@H]2CC[C@]2(C)[C@@H](O)CC[C@@H]12` [STANOLONE], for which the half-inhibitory concentration (IC50) result (in test [1]; in test [2] (hek293); in test [3] (cho-k1); on Neutrophil elastase; in test [4] (insect cells); in test [5]) was “Not Active” in each case.
Consider `CC(C)(C)NC[C@H](O)COc1cccc2c1CCCC2=O` [LEVOBUNOLOL], for which the IC50 result (in test [1]; in test [2] (hek293); in test [3] (cho-k1); against Neutrophil elastase; in test [4] (insect cells); in test [5]) was “Not Active” throughout.
Regarding `CCN1CCCC1CNC(=O)c1cc(S(N)(=O)=O)ccc1OC` (centres undefined) [SULPIRIDE], the IC50 result (in test [1]; in test [2] (hek293); in test [3] (cho-k1); against Neutrophil elastase; in test [4] (insect cells); in test [5]) was “Not Active” throughout.
With `CCN(CC)C(=S)SSC(=S)N(CC)CC`, the 50% inhibitory concentration (IC50) (commonly the point on the concentration scale where inhibition reaches its midpoint) in test [1] is “Not Active”; in test [2] (read-out: IC50), 23.7 µM; in test [3] (cho-k1), “Not Active”; on Neutrophil elastase it was “Not Active”; in test [4] (insect cells), “Not Active”; in test [5] it was “Not Active”. Besides, in test [2] (read-out: Ki), the inhibition constant (Ki) (commonly a measure of affinity in units of concentration, obtained from inhibition or displacement) amounted to 18.3 µM.
With `OC[C@@H](O)[C@@H](O)[C@H](O)[C@H](O)CO` [MANNITOL], the IC50 entry (in test [1]; in test [2] (hek293); in test [3] (cho-k1); at Neutrophil elastase; in test [4] (insect cells); in test [5]) was “Not Active” each time.
With `C[N+]1(C)[C@@H]2C[C@@H](OC(=O)[C@H](CO)c3ccccc3)C[C@H]1[C@@H]1O[C@@H]12.[Br-]` [METHSCOPOLAMINE BROMIDE], the IC50 entry (in test [1]; in test [2] (hek293); on Neutrophil elastase; in test [4] (insect cells); in test [5]) was “Not Active” each time.
On to `CCN(CC)CCNC(=O)c1cc(Cl)c(N)cc1OC` [METOCLOPRAMIDE], for which the IC50 entry (in test [1]; in test [2] (hek293); in test [3] (cho-k1); at Neutrophil elastase; in test [4] (insect cells); in test [5]) was “Not Active” each time.
Turning to `CC(=O)O[C@]1(C(C)=O)CC[C@H]2[C@@H]3C[C@H](C)C4=CC(=O)CC[C@]4(C)[C@H]3CC[C@@]21C` [MEDROXYPROGESTERONE ACETATE], the IC50 result (in test [1]; in test [2] (hek293); in test [3] (cho-k1); on Neutrophil elastase; in test [4] (insect cells); in test [5]) was “Not Active” in each case.
Turning to `Cc1ccnc(NS(=O)(=O)c2ccc(N)cc2)n1` [SULFAMERAZINE], the IC50 result (in test [1]; in test [2] (hek293); in test [3] (cho-k1); on Neutrophil elastase; in test [4] (insect cells); in test [5]) was “Not Active” throughout.
As to `O=C(c1ccccc1)c1ccc2n1CCC2C(=O)O` (centres undefined) [KETOROLAC], the IC50 result (in test [1]; in test [2] (hek293); in test [3] (cho-k1); at Neutrophil elastase; in test [4] (insect cells); in test [5]) was “Not Active” each time.
On to `Cc1nnc(NS(=O)(=O)c2ccc(N)cc2)s1` [SULFAMETHIZOLE], for which the IC50 result (in test [1]; in test [2] (hek293); in test [3] (cho-k1); at Neutrophil elastase; in test [4] (insect cells); in test [5]) was “Not Active” throughout.
For the molecule `CCC(C)(C)C(=O)O[C@H]1C[C@@H](C)C=C2C=C[C@H](C)[C@H](CC[C@@H]3C[C@@H](O)CC(=O)O3)[C@H]21` [SIMVASTATIN], the IC50 entry (in test [1]; in test [2] (hek293); in test [3] (cho-k1); on Neutrophil elastase; in test [4] (insect cells); in test [5]) was “Not Active” in each case.
Take `Oc1ccc(/C=C/c2cc(O)cc(O)c2)cc1` [RESVERATROL]: the IC50 result (in test [1]; in test [2] (hek293); in test [3] (cho-k1); at Neutrophil elastase; in test [4] (insect cells); in test [5]) was “Not Active” throughout.
As for `Cc1cnc(NC(=O)C2=C(O)c3ccccc3S(=O)(=O)N2C)s1` [MELOXICAM], the IC50 entry (in test [1]; in test [2] (hek293); in test [3] (cho-k1); against Neutrophil elastase; in test [4] (insect cells); in test [5]) was “Not Active” throughout.
Consider `CC[C@H](C)[C@@H](CO[C@@H](Cc1ccccc1)C(=O)N[C@@H](CCS(C)(=O)=O)C(=O)OC(C)C)NC[C@@H](N)CS`, for which the IC50 entry in test [1] is “Not Active”; in test [2] (hek293) it was “Not Active”; in test [3] (read-out: IC50), 3.57 µM; on Neutrophil elastase it was “Not Active”; in test [4] (read-out: IC50), 0.813 µM; in test [5] it was “Not Active”. Besides, the Ki in test [3] (read-out: Ki) is 1.27 µM.
For the molecule `O=C1CC[C@@]2(O)[C@H]3Cc4ccc(O)c5c4[C@@]2(CCN3CC2CC2)[C@H]1O5` [NALTREXONE], the IC50 entry (in test [1]; in test [2] (hek293); in test [3] (cho-k1); on Neutrophil elastase; in test [4] (insect cells); in test [5]) was “Not Active” each time.
Turning to `CNCCCC12CCC(c3ccccc31)c1ccccc12` [MAPROTILINE], the IC50 is 0.567 µM in test [1] (read-out: IC50); “Not Active” in test [2] (hek293); “Not Active” at Neutrophil elastase; “Not Active” in test [4] (insect cells); “Not Active” in test [5]. Further, the inhibitory constant (Ki) in test [1] came to 0.23 µM.
Consider `CN(C)CCC=C1c2ccccc2COc2ccccc21` [DOXEPIN], for which the IC50 in test [1] (read-out: IC50) was 0.107 µM; in test [2] (hek293) it was “Not Active”; against Neutrophil elastase it was “Not Active”; in test [4] (insect cells), “Not Active”. Moreover, the Ki was 0.043 µM in test [1] and “Not Active” in test [5].
For `C=CCc1ccc2c(c1)OCO2` [SAFROLE], the IC50 result (in test [1]; in test [2] (hek293); in test [3] (cho-k1); against Neutrophil elastase; in test [4] (insect cells); in test [5]) was “Not Active” each time.
`O=[As][O-].[Na+]` [SODIUM ARSENITE]: the IC50 entry (in test [1]; in test [2] (hek293); in test [3] (cho-k1); against Neutrophil elastase; in test [4] (insect cells); in test [5]) was “Not Active” in each case.
`Cc1cn([C@H]2C=C[C@@H](CO)O2)c(=O)[nH]c1=O` [STAVUDINE]: the IC50 result (in test [1]; in test [2] (hek293); in test [3] (cho-k1); against Neutrophil elastase; in test [4] (insect cells); in test [5]) was “Not Active” each time.
Consider `COC(=O)Nc1nc2ccc(C(=O)c3ccccc3)cc2[nH]1` [MEBENDAZOLE], for which the IC50 entry (in test [1]; in test [2] (hek293); in test [3] (cho-k1); against Neutrophil elastase; in test [4] (insect cells); in test [5]) was “Not Active” throughout.
Consider `Cc1cc2c(s1)Nc1ccccc1N=C2N1CCN(C)CC1` [OLANZAPINE], for which the IC50 result (in test [2] (hek293); in test [3] (cho-k1); on Neutrophil elastase; in test [4] (insect cells); in test [5]) was “Not Active” throughout.
